Laboratory results: ChEMBL document CHEMBL6120973 (J Med Chem, 2024)
Values after ≈ are worked out from the molar mass of the structure shown.

Columns and labels:
[1] = Cytotoxicity against human MT4 cells assessed as reduction in cell viability measured after 5 days by MTT assay; settings: MT4 cells
[2] = system: Human immunodeficiency virus 1; assay: Antiviral activity against HIV-1 harboring RT F227L/V106A double mutant infected in human MT4 cells assessed as protection against virus-induced cytopathic effect incubated for 5 days by MTT assay; type: functional, organism-based; settings: Human immunodeficiency virus 1, MT4, 120 h
[3] = system: Human immunodeficiency virus 1; assay: Potency index, ratio of 4-(8-(3-nitrophenyl)-1,7-naphthyridin-6-yl)benzoic acid MIC to test compound MIC for antiviral activity against wildtype HIV-1 IIIB infected in human MT4 cells assessed as protection against virus-induced cytopathic effect incubated for 5 days by MTT assay; type: functional; settings: time 5 day
[4] = target: Cytochrome P450 2D6 (Homo sapiens, UniProt P10635); assay: Inhibition of CYP2D6 in human liver microsomes preincubated for 10 mins followed by NADPH addition and measured after 15 mins by LC/MS/MS analysis
[5] = system: Human immunodeficiency virus 1; assay: Antiviral activity against wildtype HIV-1 IIIB infected in human MT4 cells assessed as protection against virus-induced cytopathic effect incubated for 5 days by MTT assay; type: functional, organism-based; settings: Human immunodeficiency virus 1, IIIB, MT4, 120 h
[6] = Acute toxicity in male ICR mouse assessed as effect on pathological damage in liver at 2000 mg/kg, IG measured after 14 days by H and E staining based analysis; type: organism-based; settings: in vivo, po, 336 h, time 14 day
[7] = Acute toxicity in female ICR mouse assessed as effect on pathological damage in lung at 2000 mg/kg, IG measured after 14 days by H and E staining based analysis; type: organism-based; settings: in vivo, po, 336 h, time 14 day
[8] = Acute toxicity in female ICR mouse assessed as effect on pathological damage in kidney at 2000 mg/kg, IG measured after 14 days by H and E staining based analysis; type: organism-based; settings: in vivo, po, 336 h, time 14 day
[9] = Acute toxicity in male ICR mouse assessed as effect on behavior at 2000 mg/kg, IG measured after 14 days; type: organism-based; settings: in vivo, po, 336 h, time 14 day
[10] = system: Human immunodeficiency virus 1; assay: Antiviral activity against HIV-1 harboring RT E138K mutant infected in human MT4 cells assessed as protection against virus-induced cytopathic effect incubated for 5 days by MTT assay; type: functional, organism-based; settings: Human immunodeficiency virus 1, MT4, 120 h
[11] = Acute toxicity in male ICR mouse assessed as effect on pathological damage in brain at 2000 mg/kg, IG measured after 14 days by H and E staining based analysis; type: organism-based; settings: in vivo, po, 336 h, time 14 day
[12] = system: Human immunodeficiency virus 1; assay: Antiviral activity against HIV-1 harboring RT Y181C mutant infected in human MT4 cells assessed as protection against virus-induced cytopathic effect incubated for 5 days by MTT assay; type: functional, organism-based; settings: Human immunodeficiency virus 1, MT4, 120 h
[13] = target: Cytochrome P450 2C19 (Homo sapiens, UniProt P33261); assay: Inhibition of CYP2C19 in human liver microsomes preincubated for 10 mins followed by NADPH addition and measured after 15 mins by LC/MS/MS analysis
[14] = Metabolic stability in rat liver microsomes assessed as half-life at 0.1 uM preincubated for 10 mins followed by NADPH addition and measured upto 60 mins by LC-MS/MS analysis; type: ADME, Microsome; settings: time < 70 min
[15] = target: T1, Cytochrome P450 1A2 (Homo sapiens, UniProt P05177); assay: Inhibition of CYP1A2 in human liver microsomes preincubated for 10 mins followed by NADPH addition and measured after 15 mins by LC/MS/MS analysis
T1 sequence (P05177 whole entry): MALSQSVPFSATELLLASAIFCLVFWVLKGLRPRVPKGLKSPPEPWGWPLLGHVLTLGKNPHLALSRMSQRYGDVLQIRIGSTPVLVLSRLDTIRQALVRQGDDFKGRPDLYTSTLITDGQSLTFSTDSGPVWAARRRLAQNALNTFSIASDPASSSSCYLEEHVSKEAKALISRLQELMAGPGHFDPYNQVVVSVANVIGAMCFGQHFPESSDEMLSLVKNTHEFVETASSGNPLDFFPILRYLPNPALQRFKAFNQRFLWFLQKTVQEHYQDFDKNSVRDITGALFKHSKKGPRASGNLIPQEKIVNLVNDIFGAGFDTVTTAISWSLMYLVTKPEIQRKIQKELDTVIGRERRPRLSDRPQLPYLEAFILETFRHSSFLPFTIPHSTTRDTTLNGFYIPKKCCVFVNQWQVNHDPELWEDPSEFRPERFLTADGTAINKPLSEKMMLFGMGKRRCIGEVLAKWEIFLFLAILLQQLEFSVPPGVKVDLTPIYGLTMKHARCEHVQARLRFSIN

[16] = Acute toxicity in female ICR mouse assessed as effect on pathological damage in liver at 2000 mg/kg, IG measured after 14 days by H and E staining based analysis; type: organism-based; settings: in vivo, po, 336 h, time 14 day
[17] = Solubility of compound in Watson's distilled pure water measured after 24 hrs by HPLC analysis; type: physicochemical
[18] = system: Human immunodeficiency virus 1; assay: Antiviral activity against HIV-1 harboring RT Y188L mutant infected in human MT4 cells assessed as protection against virus-induced cytopathic effect incubated for 5 days by MTT assay; type: functional, organism-based; settings: Human immunodeficiency virus 1, MT4, 120 h
[19] = Acute toxicity in female ICR mouse assessed as effect on pathological damage in brain at 2000 mg/kg, IG measured after 14 days by H and E staining based analysis; type: organism-based; settings: in vivo, po, 336 h, time 14 day
[20] = Solubility of compound in phosphate buffer at pH 2.0 measured after 24 hrs by HPLC analysis; type: physicochemical
[21] = target: hERG (Homo sapiens, UniProt Q12809); assay: Inhibition of human ERG expressed in CHO cells at holding potential of -80 mV at >40 uM by automated patch clamp electrophysiological method relative to control; type: toxicity, cell-based; settings: CHO cells that express hERG
[22] = Solubility of compound in phosphate buffer at pH 7.4 measured after 24 hrs by HPLC analysis; type: physicochemical
[23] = Acute toxicity in female ICR mouse assessed as effect on behavior at 2000 mg/kg, IG measured after 14 days; type: organism-based; settings: in vivo, po, 336 h, time 14 day
[24] = Acute toxicity in male ICR mouse assessed as effect on body weight at 2000 mg/kg, IG measured after 14 days; type: organism-based; settings: in vivo, po, 336 h, time 14 day
[25] = target: Cytochrome P450 2C9 (Homo sapiens, UniProt P11712); assay: Inhibition of CYP2C9 in human liver microsomes preincubated for 10 mins followed by NADPH addition and measured after 15 mins by LC/MS/MS analysis
[26] = Acute toxicity in male ICR mouse assessed as effect on pathological damage in spleen at 2000 mg/kg, IG measured after 14 days by H and E staining based analysis; type: organism-based; settings: in vivo, po, 336 h, time 14 day
[27] = target: Cytochrome P450 3A4 (Homo sapiens, UniProt P08684); assay: Inhibition of CYP3A4 in human liver microsomes using testosterone as substrate preincubated for 10 mins followed by NADPH addition and measured after 15 mins by LC/MS/MS analysis
[28] = Selectivity index, ratio of CC50 for human MT4 cells to EC50 for wild type HIV-1 IIIB infected in human MT4 cellS; settings: MT4 cells
[29] = Acute toxicity in male ICR mouse assessed as effect on pathological damage in heart at 2000 mg/kg, IG measured after 14 days by H and E staining based analysis; type: organism-based; settings: in vivo, po, 336 h, time 14 day
[30] = Solubility of compound in phosphate buffer at pH 7.0 measured after 24 hrs by HPLC analysis; type: physicochemical

Chain of Cytochrome P450 2C19 (P33261 whole entry): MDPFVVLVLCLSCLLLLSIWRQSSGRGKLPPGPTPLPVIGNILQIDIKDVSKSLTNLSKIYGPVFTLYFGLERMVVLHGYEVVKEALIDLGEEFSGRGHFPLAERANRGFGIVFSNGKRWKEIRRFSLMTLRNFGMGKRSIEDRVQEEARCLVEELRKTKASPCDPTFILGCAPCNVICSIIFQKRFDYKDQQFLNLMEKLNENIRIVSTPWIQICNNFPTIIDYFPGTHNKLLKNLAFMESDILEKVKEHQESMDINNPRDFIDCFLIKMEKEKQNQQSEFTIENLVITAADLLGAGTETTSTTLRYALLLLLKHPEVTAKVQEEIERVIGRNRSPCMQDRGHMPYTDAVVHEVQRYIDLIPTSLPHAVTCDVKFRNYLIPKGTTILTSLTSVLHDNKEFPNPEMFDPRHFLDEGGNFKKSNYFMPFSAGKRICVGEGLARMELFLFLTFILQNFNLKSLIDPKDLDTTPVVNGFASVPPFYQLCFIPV
Chain of Cytochrome P450 2D6 (P10635 whole entry): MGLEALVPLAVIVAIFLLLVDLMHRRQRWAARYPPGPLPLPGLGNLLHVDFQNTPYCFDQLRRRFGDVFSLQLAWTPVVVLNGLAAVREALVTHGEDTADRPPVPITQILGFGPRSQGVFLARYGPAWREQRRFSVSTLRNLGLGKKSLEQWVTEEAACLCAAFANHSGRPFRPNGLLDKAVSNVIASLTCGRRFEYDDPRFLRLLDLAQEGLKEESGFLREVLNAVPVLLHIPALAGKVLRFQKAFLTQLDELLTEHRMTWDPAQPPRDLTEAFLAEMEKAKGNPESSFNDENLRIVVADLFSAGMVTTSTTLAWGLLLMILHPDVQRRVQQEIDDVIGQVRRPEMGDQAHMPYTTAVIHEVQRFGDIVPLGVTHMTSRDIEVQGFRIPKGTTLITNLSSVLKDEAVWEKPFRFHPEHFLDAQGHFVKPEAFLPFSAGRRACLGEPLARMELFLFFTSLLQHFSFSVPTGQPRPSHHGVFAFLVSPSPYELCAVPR
Chain of Cytochrome P450 3A4 (P08684 whole entry): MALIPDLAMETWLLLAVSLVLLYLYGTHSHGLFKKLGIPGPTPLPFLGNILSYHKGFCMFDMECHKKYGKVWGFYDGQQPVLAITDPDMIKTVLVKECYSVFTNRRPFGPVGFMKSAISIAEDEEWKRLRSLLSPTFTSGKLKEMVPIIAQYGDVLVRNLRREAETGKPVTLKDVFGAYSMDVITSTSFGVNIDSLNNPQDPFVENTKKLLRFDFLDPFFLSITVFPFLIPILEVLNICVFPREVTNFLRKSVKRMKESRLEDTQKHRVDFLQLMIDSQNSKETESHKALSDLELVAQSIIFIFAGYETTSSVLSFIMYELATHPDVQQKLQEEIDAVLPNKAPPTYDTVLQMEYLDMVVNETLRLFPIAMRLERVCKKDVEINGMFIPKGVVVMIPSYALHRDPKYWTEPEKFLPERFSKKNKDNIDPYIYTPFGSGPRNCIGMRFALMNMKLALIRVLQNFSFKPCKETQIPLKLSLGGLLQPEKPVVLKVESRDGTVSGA
Chain of Cytochrome P450 2C9 (P11712 whole entry): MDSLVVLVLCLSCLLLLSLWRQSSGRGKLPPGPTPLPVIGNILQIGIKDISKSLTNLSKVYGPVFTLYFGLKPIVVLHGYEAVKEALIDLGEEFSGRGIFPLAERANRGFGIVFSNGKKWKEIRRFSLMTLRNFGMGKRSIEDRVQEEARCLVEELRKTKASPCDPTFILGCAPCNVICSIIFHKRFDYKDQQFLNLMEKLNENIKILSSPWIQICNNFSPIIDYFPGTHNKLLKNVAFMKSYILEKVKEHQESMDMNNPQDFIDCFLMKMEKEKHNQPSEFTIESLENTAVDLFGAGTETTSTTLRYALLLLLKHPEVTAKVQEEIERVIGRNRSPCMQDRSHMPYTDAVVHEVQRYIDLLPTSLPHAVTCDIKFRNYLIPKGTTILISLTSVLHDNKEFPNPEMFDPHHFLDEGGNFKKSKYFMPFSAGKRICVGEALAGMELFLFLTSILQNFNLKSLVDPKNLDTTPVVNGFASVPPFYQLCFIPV
Chain of hERG (Q12809 whole entry): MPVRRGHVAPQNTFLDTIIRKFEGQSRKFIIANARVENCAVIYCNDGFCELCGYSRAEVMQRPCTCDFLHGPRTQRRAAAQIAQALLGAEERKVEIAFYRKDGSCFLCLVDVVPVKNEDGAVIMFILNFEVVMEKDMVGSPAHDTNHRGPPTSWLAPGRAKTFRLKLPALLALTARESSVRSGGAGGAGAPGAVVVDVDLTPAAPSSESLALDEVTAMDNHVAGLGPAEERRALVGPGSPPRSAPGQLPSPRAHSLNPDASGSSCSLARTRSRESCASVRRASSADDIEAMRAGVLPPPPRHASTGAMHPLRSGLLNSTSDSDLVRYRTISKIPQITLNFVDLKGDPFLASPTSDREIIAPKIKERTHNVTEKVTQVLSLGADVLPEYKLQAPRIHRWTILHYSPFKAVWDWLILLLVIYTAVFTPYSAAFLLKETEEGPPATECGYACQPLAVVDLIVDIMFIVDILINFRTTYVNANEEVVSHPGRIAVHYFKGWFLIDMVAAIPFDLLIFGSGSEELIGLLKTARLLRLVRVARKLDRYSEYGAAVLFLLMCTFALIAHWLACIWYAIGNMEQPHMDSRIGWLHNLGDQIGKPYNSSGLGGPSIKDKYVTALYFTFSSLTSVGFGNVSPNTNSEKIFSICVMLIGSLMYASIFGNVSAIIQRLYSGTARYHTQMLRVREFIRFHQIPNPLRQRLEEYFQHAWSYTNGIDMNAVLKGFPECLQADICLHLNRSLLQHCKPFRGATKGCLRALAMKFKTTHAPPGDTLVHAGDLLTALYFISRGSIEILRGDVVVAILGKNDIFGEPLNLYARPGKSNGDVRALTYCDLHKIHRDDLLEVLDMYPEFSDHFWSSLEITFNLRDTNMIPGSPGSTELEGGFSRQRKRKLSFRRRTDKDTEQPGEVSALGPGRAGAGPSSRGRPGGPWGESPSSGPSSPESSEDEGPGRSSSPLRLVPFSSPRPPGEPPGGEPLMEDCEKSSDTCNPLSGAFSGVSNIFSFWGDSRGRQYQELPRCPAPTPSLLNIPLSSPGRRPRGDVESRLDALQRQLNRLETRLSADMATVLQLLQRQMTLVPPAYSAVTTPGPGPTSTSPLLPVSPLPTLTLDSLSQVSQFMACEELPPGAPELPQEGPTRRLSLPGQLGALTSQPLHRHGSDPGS

SMILES: Cc1cc(-c2ccncc2)cc(C)c1Nc1nc(Nc2ccc(C#N)cc2)ncc1-c1cn[nH]c1
- CC50 at 120 h [1]: > 273 µM
- EC50 [2]: 0.079 µM
- Ratio [3]: 37
- IC50 [4]: > 50 µM
- EC50 [5]: 0.005 µM
- Activity [6]: Non-toxic
- Activity [7]: Non-toxic
- Activity [8]: Non-toxic
- Activity [9]: Non-toxic
- EC50 [10]: 0.011 µM
- Activity [11]: Non-toxic
- EC50 [12]: 0.013 µM
- IC50 [13]: > 50 µM
- half-life at 0.1 µM [14]: 20.4 min
- IC50 [15]: > 50 µM
- Activity [16]: Non-toxic
- solubility at 24 h [17]: 1.3 µg/mL (≈ 2.84 µM)
- EC50 [18]: 0.013 µM
- Activity [19]: Non-toxic
- solubility at 24 h [20]: 1190 µg/mL (≈ 2600 µM)
- inhibition at 40 µM [21]: 31.4%
- solubility at 24 h [22]: < 1 µg/mL
- Activity [23]: Non-toxic
- Activity [24]: Non-toxic
- IC50 [25]: > 50 µM
- Activity [26]: Non-toxic
- IC50 [27]: > 50 µM
- selectivity ratio [28]: > 52600
- Activity [29]: Non-toxic
- solubility at 24 h [30]: < 1 µg/mL
